{
  "source": "patent US20200290950A1",
  "about": "“ALKAMIDE COMPOUNDS AND USES THEREOF” (NORTH CAROLINA STATE UNIVERSITY, priority 2017, published 2020)",
  "key": {"RBL-2H3 cells": {"tested_on": "RBL-2H3 cells", "test": "Calcium assay, Fluo-4 (Example 3)", "type": "cell-based, rat", "protocol": "FIGS. 22A-22D. The alkamide fatty acid is necessary for inhibition of calcium influx. RBL-2H3 cells were plated overnight, incubated with Fluo-4 AM for 1 h, stimulated by 1 μM A23187 (FIG. 22A) or 5 ng/mL DNP-BSA (FIG. 22B) in the absence or presence of each alkamide, and fluorescence was read for 2 mins every 5 secs. Data are presented as the mean change in RFU of 4 experiments. Percent inhibition of calcium influx was calculated for A23187 (FIG. 22C) and DNP-BSA (FIG. 22D) stimulated cells at 2 mins. *P<0.05, **P<0.01, and ***P<0.001 one-way ANOVA with Dunnett's post hoc test compared to A15.\nRBL-2H3 cells (1.0×10^5 cells) were incubated overnight in a 96 well black-wall clear bottom plate with or without IgE-DNP (0.1 μg/mL) at 37° C. with 5% CO2. The assay was performed using the Fluo-4 Direct™ Calcium Assay Kit according to the manufacturer's instruction. Briefly, cells were incubated with the Fluo-4 Direct calcium reagent loading solution for 30 minutes at 37° C. with 5% CO2 then 30 mins at room temperature. Prior to stimulation, the well baseline fluorescence was measured every 5 seconds over 1 minute using a BioTek Synergy HT microplate reader with 485/20 nm excitation and 528/20 nm emission filters. Cells were stimulated with 1 μM A23187 or 5 ng/mL DNP (IgE-DNP) in the absence or presence of each compound, and the fluorescence was measured every 5 seconds over 2 minutes. The change in fluorescence (ΔRT) was calculated as the sample fluorescence minus the baseline fluorescence for each well."}, "[1]": {"test": "TDI-induced scratching bouts (itch)", "type": "in vivo, mouse", "excerpt": "Several different model systems were utilized for these experiments. In one model, dorsal root ganglia were obtained from mice and the neurons cultured in vitro. The neurons were then stimulated in the presence/absence of A15 and YM8-85 and the calcium responses monitored by fluorescence microscopy. In the second model, the alkamides were applied to mouse skin in mineral oil. The reactions of these mice to heat, cold, and tactile stimulation was then compared with mice that had not received treatment with A15. In a third model, mice were sensitized to the chemical compound toluene-2,4-diisocyanate (TDI). TDI is an industrial chemical which causes hypersensitive skin lesions and itching in exposed humans and animals. The physiological response to TDI is complex involving type 2 T lymphocytes, cytokines, mast cells, and neurons. Alkamides were applied to sensitized animals and then ear swelling and bouts of scratching were monitored.\nThe effects of A15 on TDI-induced itch. The itch response was also monitored in mice sensitized and treated with TDI. Treated mice were video recorded and the number of scratching bouts quantified by an observer."}, "Jurkat T cells": {"tested_on": "Jurkat T cells", "test": "Fluo-4 calcium assay, Jurkat cells", "type": "cell-based", "conditions": "1 μM A23187, 100 μM A15, at 1 min", "protocol": "FIGS. 4A-4D. A15 inhibits A23187-stimulated calcium influx in RAW 264.7 and Jurkat cells. RAW 264.7 (FIG. 4A-4B) or Jurkat cells (FIG. 4C-4D) were loaded with fluo-4 AM using the Fluo-4 AM Direct™ Calcium Assay Kit and fluorescence was measured on a microplate reader. Cells were stimulated with 1 μM A23187 in combination with vehicle only or 100 μM A15. Bar graphs represent the means±SEM of the Δ in RFU's at 1 min post-A23187 stimulation from 3 independent experiments. Statistical analysis was performed using an unpaired Student's t-test, *p<0.05.\nRBL-2H3, BMMC, RAW 264.7, or Jurkat cells were plated in clear-bottom, black, 96-well plates (BioExpress, Kaysville, Utah) and incubated overnight with media only or media containing IgE anti-DNP. […] Prior to stimulation, baseline fluorescent readings were measured from triplicate wells in 5 s intervals for 1 min using a Synergy HT microplate reader with 485/20 nm excitation and 528/20 nm emission filters. Cells were then treated with either 1 μM A23187 or 50 ng/mL DNP-BSA prepared in calcium- and magnesium-containing or calcium- and magnesium-free HBSS with 20 mM HEPES, and fluorescence was measured in 10 s intervals for 2 min. […] The average baseline fluorescence of each well was subtracted from the stimulated fluorescent values to calculate the change (Δ) in RFU's and graphed as shown."}},
  "data": [
    {"smiles": "CCCCCCC/C=C/C=C/C(=O)NCC(C)C", "note": "[A15, (2E,4E)-N-Isobutyldodeca-2,4-dienamide]", "values": [
      {"measurement": "percent inhibition of calcium influx", "setting": "RBL-2H3 cells; 5 ng/mL DNP-BSA, at 2 minutes", "value": 66, "unit": "%"},
      {"measurement": "percent inhibition of calcium influx", "setting": "RBL-2H3 cells; 1 μM A23187, at 2 minutes", "value": 76, "unit": "%"},
      {"measurement": "scratching bouts in TDI treated mice", "setting": "[1]; higher dose 1.0%", "value": "strong significant inhibition of scratching"},
      {"measurement": "scratching bouts in TDI treated mice", "setting": "[1]; lower dose 0.1%", "value": "strong significant inhibition of scratching"},
      {"measurement": "suppression of calcium influx", "setting": "Jurkat T cells", "value": 43.6, "unit": "%"}
    ]}
  ]
}
